Reference: patent publication US7217708B2, “3,7-Diazabicyclo [3.3.1] formulations as anti-arrhythmic compounds” (Astrazeneca AB, priority 2001, dated 2007)

In the case of `CC(C)(C)OC(=O)NCCN1CC2CN(CCCNc3ccc(C#N)cc3)CC(C1)O2` [Example 23, Compound B], the melting point was 113.5 °C.
